Like-named read-outs stand apart in the source and are kept apart here.
What was measured:
[1] = Toxicokinetic evaluation of 14-day repeated intragastric administration to SD rats; type: in vivo; settings: both sexes, SD, rat, plasma, po; for Vd/F at 7 day: Day 7, read-out: Apparent volume of distribution Vz/F; for CL/F at 7 day: Day 7, read-out: Clearance CL/F; for half-life at 7 day: Day 7, read-out: Half-life T1/2 (converted); for MRT at 7 day: Day 7, read-out: Residence time MRT; for Vd/F at 14 day: Day 14, read-out: Apparent volume of distribution Vz/F; for CL/F at 14 day: Day 14, read-out: Clearance CL/F; for half-life at 14 day: Day 14, read-out: Half-life T1/2 (converted); for Cmax at 14 day: Day 14, read-out: Plasma concentration Cmax; for MRT at 14 day: Day 14, read-out: Residence time MRT
Experimental: With SD rats as test animals, the plasma concentrations of the test compounds and the concentrations of the original forms of the compounds in the administration solutions were measured by LC/MS/MS at different time points after intragastric administration. The toxicokinetic performance of the compound disclosed herein was studied in SD rats and its toxicokinetic profile was evaluated.
24 SD rats, an equal number of males and females, evenly divided into 6 groups of 4, an equal number of males and females in each group, provided by Vital River Laboratory Animal Technology Co., Ltd.
A certain amount of the compound of Example 16 was measured out, and 15% PEG400 and 85% (10% TPGS+1% HPMC K100LV) were added to prepare a pale yellow homogenous suspension.
A certain amount of compound MYK-461 was measured out, and 0.5% MC was added to prepare a colorless clear solution.
The compound of Example 16 was intragastrically administered at doses of 5 mg/kg, 15 mg/kg and 30 mg/kg, at a volume of 10 mL/kg.
Compound MYK-461 was administered at doses of 0.5 mg/kg, 1.5 mg/kg and 3 mg/kg, at a volume of 10 mL/kg.
0.2-mL blood samples were collected from the orbit 0.5 h, 1.0 h, 2.0 h, 4.0 h, 8.0 h and 24.0 h after administration on day 1, and before administration and 0.5 h, 1.0 h, 2.0 h, 4.0 h, 8.0 hi, 24.0 h after administration on day 7 and day 14, placed into EDTA-K2 anticoagulation tubes, and centrifuged at 10,000 rpm for 1 min (4° C.), and plasma was isolated within 1 h and stored at −20° C. before analysis. The blood collection to centrifugation process was performed under ice bath conditions. Two hours after administration, feeding was resumed.
Determination of plasma concentrations in SD rats after intragastric administration of different concentrations of test compounds: 20 μL of SD rat plasma at each time point post-dose was mixed with 50 μL of an internal standard solution (internal standard for the compound of Example 16: 100 ng/mL verapamil; internal standard for compound MYK-461: 100 ng(mL camptothecin) and 200 μL of acetonitrile; the mixture was vortexed for 5 min and centrifuged at 3700 rpm for 10 min, and 1 μL of the supernatant was taken for LC/MS/MS analysis.

[2] = Pharmacokinetic evaluation in cynomolgus monkeys; type: in vivo; settings: for AUC: read-out: Area under curve AUC; for half-life: read-out: Half-life T1/2 (converted); for Cmax: read-out: Plasma concentration Cmax; for MRT: read-out: Residence time MRT
Experimental: With cynomolgus monkeys as test animals, the plasma concentrations of the test compounds were measured by LC/MS/MS at different time points after intragastric administration and intravenous injection. The pharmacokinetic performance of the compound disclosed herein was studied in cynomolgus monkeys and its pharmacokinetic profile was evaluated.
Pharmacokinetics of the compound of Example 16 in cynomolgus monkeys: 8 cynomolgus monkeys, an equal number of males and females, divided into 2 groups of 4, provided by Shanghai Medicilon Inc.
Pharmacokinetics of compound MYK-461 in cynomolgus monkeys: 6 cynomolgus monkeys, male, divided into 2 groups of 3, provided by Shanghai Medicilon Inc.
A certain amount of the compound of Example 16 was measured out, and 5% DMSO, 30% PG, 30% PEG400 and 35% normal saline were added to prepare a clear solution.
A certain amount of compound MYK-461 was measured out, and 5% DMSO, 20% PG, 20% PEG400 and 55% normal saline were added to prepare a clear solution.
Cynomolgus monkeys were fasted overnight and then given compounds by intragastric administration and intravenous injection at doses of 2 mg/kg and 0.5 mg/kg, respectively, and at volumes of 5 mL/kg and 2 mL/kg, respectively.
1.0-mL blood samples were collected from the forelimb veins of the animals in the intragastric administration group before administration and 0.25 h, 0.5 h, 1h, 2 h, 4 h, 6 h, 8 h, 12 h and 24 h after administration, placed into EDTA-K2 anticoagulant tubes, and centrifuged at 10,000 rpm for 5 min (4° C.), and plasma was isolated within 1 h and stored at −80° C. before analysis. The blood collection to centrifugation process was performed under ice bath conditions. Three hours after administration, feeding was resumed, and ad libitum access to water was given.
Blood samples were collected from the animals in the intravenous injection group before administration and 5 min, 0.25 h, 0.5 h, 1.0 h, 2.0 h, 4.0 h, 8.0 h, 12.0 h and 24.0 h after administration and processed as in the intragastric administration group.
Determination of plasma concentrations in cynomolgus monkeys after intragastric administration and intravenous injection of different concentrations of test compounds: 20 μL of cynomolgus monkey plasma at each time point post-dose was mixed with an internal standard solution (internal standard for the compound of Example 16: 10 ng/mL verapamil; internal standard for compound MYK-461: 100 ng/mL camptothecin) and 400 μL of methanol; the mixture was vortexed for 1 min and centrifuged at 18,000 g for 7 min, and 200 μL of the supernatant was transferred to a 96-well plate: 2 μL of the supernatant was taken for LC/MS/MS analysis.

[3] = 0.5 mg/kg, repeated intragastric 0.5 mg/kg
[4] = 1.5 mg/kg, repeated intragastric 1.5 mg/kg
[5] = 3 mg/kg, repeated intragastric 3.0 mg/kg
[6] = both (Example 16), male (MYK-461), cynomolgus monkey, plasma, intravenous injection, 0.5 mg/kg
[7] = both (Example 16), male (MYK-461), cynomolgus monkey, plasma, po, intragastric administration, 2 mg/kg
[8] = intravenous injection, 0.5 mg/kg

With `CC(C)n1c(=O)cc(N[C@@H](C)c2ccccc2)[nH]c1=O` [MYK-461, reference compound] the Vd/F ([1]; 0.5 mg/kg, repeated intragastric 0.5 mg/kg, Day 1, read-out: Apparent volume of distribution Vz/F) was 13.8 L/kg, the AUC ([1]; 0.5 mg/kg, repeated intragastric 0.5 mg/kg, Day 1, read-out: Area under curve AUC) was 491 ng·h/mL and the CL/F ([1]; 0.5 mg/kg, repeated intragastric 0.5 mg/kg, Day 1, read-out: Clearance CL/F) was 12.9 mL/min/kg. It also gave a half-life ([1]; 0.5 mg/kg, repeated intragastric 0.5 mg/kg, Day 1, read-out: Half-life T1/2 (converted)) of 13.3 h, a Cmax ([1]; 0.5 mg/kg, repeated intragastric 0.5 mg/kg, Day 1, read-out: Plasma concentration Cmax) of 40.2 ng/mL and an MRT ([1]; 0.5 mg/kg, repeated intragastric 0.5 mg/kg, Day 1, read-out: Residence time MRT) of 19 h. For the same molecule, the Vd/F at 7 day [1, 3] was 8.41 L/kg, the AUC ([1]; 0.5 mg/kg, repeated intragastric 0.5 mg/kg, Day 7, read-out: Area under curve AUC) was 888 ng·h/mL and the CL/F at 7 day [1, 3] was 7.46 mL/min/kg. It also gave a half-life at 7 day [1, 3] of 14.7 h, a Cmax ([1]; 0.5 mg/kg, repeated intragastric 0.5 mg/kg, Day 7, read-out: Plasma concentration Cmax) of 51.7 ng/mL and an MRT at 7 day [1, 3] of 21.3 h. The Vd/F at 14 day [1, 3] was 5.86 L/kg, the AUC ([1]; 0.5 mg/kg, repeated intragastric 0.5 mg/kg, Day 14, read-out: Area under curve AUC) was 1560 ng·h/mL and the CL/F at 14 day [1, 3] was 3.06 mL/min/kg. The half-life at 14 day [1, 3] was 32.9 h, the Cmax at 14 day [1, 3] was 89.3 ng/mL and the MRT at 14 day [1, 3] was 47.3 h. It also gave a Vd/F at 1 day ([1]; 1.5 mg/kg, repeated intragastric 1.5 mg/kg, Day 1, read-out: Apparent volume of distribution Vz/F) of 9.56 L/kg, an AUC ([1]; 1.5 mg/kg, repeated intragastric 1.5 mg/kg, Day 1, read-out: Area under curve AUC) of 2580 ng·h/mL and a CL/F at 1 day ([1]; 1.5 mg/kg, repeated intragastric 1.5 mg/kg, Day 1, read-out: Clearance CL/F) of 6.39 mL/min/kg. The half-life at 1 day ([1]; 1.5 mg/kg, repeated intragastric 1.5 mg/kg, Day 1, read-out: Half-life T1/2 (converted)) was 19.1 h, the Cmax at 1 day ([1]; 1.5 mg/kg, repeated intragastric 1.5 mg/kg, Day 1, read-out: Plasma concentration Cmax) was 140 ng/mL and the MRT at 1 day ([1]; 1.5 mg/kg, repeated intragastric 1.5 mg/kg, Day 1, read-out: Residence time MRT) was 28.2 h. It also gave a Vd/F at 7 day [1, 4] of 4.8 L/kg, an AUC ([1]; 1.5 mg/kg, repeated intragastric 1.5 mg/kg, Day 7, read-out: Area under curve AUC) of 5180 ng·h/mL and a CL/F at 7 day [1, 4] of 3.58 mL/min/kg. It also gave a half-life at 7 day [1, 4] of 20.5 h, a Cmax at 7 day ([1]; 1.5 mg/kg, repeated intragastric 1.5 mg/kg, Day 7, read-out: Plasma concentration Cmax) of 269 ng/mL and an MRT at 7 day [1, 4] of 30.2 h. The Vd/F at 14 day [1, 4] was 5.03 L/kg, the AUC ([1]; 1.5 mg/kg, repeated intragastric 1.5 mg/kg, Day 14, read-out: Area under curve AUC) was 6320 ng·h/mL and the CL/F at 14 day [1, 4] was 2.57 mL/min/kg. For the same molecule, the half-life at 14 day [1, 4] was 26.2 h, the Cmax at 14 day [1, 4] was 333 ng/mL and the MRT at 14 day [1, 4] was 38.5 h. The Vd/F at 1 day ([1]; 3 mg/kg, repeated intragastric 3.0 mg/kg, Day 1, read-out: Apparent volume of distribution Vz/F) was 8.93 L/kg, the AUC ([1]; 3 mg/kg, repeated intragastric 3.0 mg/kg, Day 1, read-out: Area under curve AUC) was 5210 ng·h/mL and the CL/F at 1 day ([1]; 3 mg/kg, repeated intragastric 3.0 mg/kg, Day 1, read-out: Clearance CL/F) was 4.91 mL/min/kg. It also gave a half-life at 1 day ([1]; 3 mg/kg, repeated intragastric 3.0 mg/kg, Day 1, read-out: Half-life T1/2 (converted)) of 28.5 h, a Cmax at 1 day ([1]; 3 mg/kg, repeated intragastric 3.0 mg/kg, Day 1, read-out: Plasma concentration Cmax) of 297 ng/mL and an MRT at 1 day ([1]; 3 mg/kg, repeated intragastric 3.0 mg/kg, Day 1, read-out: Residence time MRT) of 43.1 h. The Vd/F at 7 day [1, 5] was 4.36 L/kg, the AUC ([1]; 3 mg/kg, repeated intragastric 3.0 mg/kg, Day 7, read-out: Area under curve AUC) was 12500 ng·h/mL and the CL/F at 7 day [1, 5] was 1.97 mL/min/kg. It also gave a half-life at 7 day [1, 5] of 190 h, a Cmax at 7 day ([1]; 3 mg/kg, repeated intragastric 3.0 mg/kg, Day 7, read-out: Plasma concentration Cmax) of 628 ng/mL and an MRT at 7 day [1, 5] of 275 h. It also gave a Vd/F at 14 day [1, 5] of 3.8 L/kg, an AUC ([1]; 3 mg/kg, repeated intragastric 3.0 mg/kg, Day 14, read-out: Area under curve AUC) of 16000 ng·h/mL and a CL/F at 14 day [1, 5] of 1.3 mL/min/kg. For the same molecule, the half-life at 14 day [1, 5] was 46.5 h, the Cmax at 14 day [1, 5] was 767 ng/mL and the MRT at 14 day [1, 5] was 68.1 h. For the same molecule, the “T1/2 comparison (in words)” value [2] was “longer T1/2”, the AUC [2, 6] was 976 ng·h/mL and the half-life [2, 6] was 27.3 h. It also gave a Cmax [2, 6] of 222 ng/mL, an MRT [2, 6] of 42.8 h and a Vd/F ([2]; both (Example 16), male (MYK-461), cynomolgus monkey, plasma, po, intragastric administration, 2 mg/kg, read-out: Apparent volume of distribution Vz/F) of 11.4 L/kg. The AUC [2, 7] was 3520 ng·h/mL, the CL/F ([2]; both (Example 16), male (MYK-461), cynomolgus monkey, plasma, po, intragastric administration, 2 mg/kg, read-out: Clearance CL/F) was 2.34 mL/min/kg and the half-life [2, 7] was 78.3 h. For the same molecule, the Cmax [2, 7] was 563 ng/mL, the MRT [2, 7] was 114 h and the “Apparent volume of distribution Vz/F” value [2, 8] was 8.203 L/kg. For the same molecule, the “Clearance CL/F” value [2, 8] was 5.02 mL/min/kg.
